From ChEMBL document CHEMBL1201862, “PubChem BioAssay data set” (2004)
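Step 1: Grow cells in 96-well plates. Step 2: Expose to compound for 48 hours at 5 concentrations. Step 3: Interpolate endpoints linearly; if unreached, use highest concentration. The concentration for 50% growth inhibition is given as GI50.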 Active and inactive are the calls of the source. No stated cut-off is given here; in the data, active = GI50 up to about 1.1 µM and inactive = higher.

Experiments:
Assay in all cases: NCI tumour cell line growth inhibition, 48 h
EKVX = system: EKVX
BT-549 = system: BT-549
MOLT-4 = system: MOLT-4
UACC-62 = system: UACC-62
SF-268 = system: SF-268
HOP-62 = system: HOP-62
NCI-H23 = system: NCI-H23
COLO 205 = system: COLO 205
HT-29 = system: HT-29
NCI/ADR-RES = system: NCI/ADR-RES
SK-OV-3 = system: SK-OV-3
SK-MEL-28 = system: SK-MEL-28
OVCAR-3 = system: OVCAR-3
CAKI-1 = system: CAKI-1
DU-145 = system: DU-145
Hs-578T = system: Hs-578T
RPMI-8226 = system: RPMI-8226
LOX IMVI = system: LOX IMVI
IGROV-1 = system: IGROV-1
SR = system: SR
HCC 2998 = system: HCC 2998
SK-MEL-5 = system: SK-MEL-5
HCT-116 = system: HCT-116
Malme-3M = system: Malme-3M
HL-60 = system: HL-60
OVCAR-4 = system: OVCAR-4
K562 = system: K562
MDA-MB-435 = system: MDA-MB-435
T47D = system: T47D
A549 = system: A549
NCI-H460 = system: NCI-H460
MCF7 = system: MCF7
RXF 393 = system: RXF 393
SF-539 = system: SF-539
SW-620 = system: SW-620
OVCAR-8 = system: OVCAR-8
MDA-MB-231 = system: MDA-MB-231
PC-3 = system: PC-3
CCRF-CEM = system: CCRF-CEM
SN12C = system: SN12C
HCT-15 = system: HCT-15
SNB-19 = system: SNB-19
MDA-N = system: MDA-N
SF-295 = system: SF-295
UACC-257 = system: UACC-257
U-251 = system: U-251
OVCAR-5 = system: OVCAR-5
UO-31 = system: UO-31
SNB-75 = system: SNB-75
NCI-H226 = system: NCI-H226
SK-MEL-2 = system: SK-MEL-2
A498 = system: A498
M14 = system: M14
786-0 = system: 786-0
KM12 = system: KM12
HOP-92 = system: HOP-92
TK-10 = system: TK-10
ACHN = system: ACHN
NCI-H522 = system: NCI-H522

CCOC(=O)c1cc2c([nH]1)c(O)cc1c2ccn1Cc1ccccc1
GI50 (EKVX): 12.8 µM (inactive) | GI50 (BT-549): 17.8 µM (inactive) | GI50 (MOLT-4): 1.91 µM (inactive) | GI50 (UACC-62): 15.5 µM (inactive) | GI50 (SF-268): 19.5 µM (inactive) | GI50 (HOP-62): 17.7 µM (inactive) | GI50 (NCI-H23): 13.7 µM (inactive) | GI50 (COLO 205): 21.4 µM (inactive) | GI50 (HT-29): 16.6 µM (inactive) | GI50 (NCI/ADR-RES): 17.3 µM (inactive) | GI50 (SK-OV-3): 20.7 µM (inactive) | GI50 (SK-MEL-28): 17.5 µM (inactive) | GI50 (OVCAR-3): 14.6 µM (inactive) | GI50 (CAKI-1): 22 µM (inactive) | GI50 (DU-145): 17.8 µM (inactive) | GI50 (Hs-578T): 19.4 µM (inactive) | GI50 (RPMI-8226): 8.41 µM (inactive) | GI50 (LOX IMVI): 14.4 µM (inactive) | GI50 (IGROV-1): 19.3 µM (inactive) | GI50 (SR): 1.03 µM (active) | GI50 (HCC 2998): 19 µM (inactive) | GI50 (SK-MEL-5): 12.1 µM (inactive) | GI50 (HCT-116): 11.6 µM (inactive) | GI50 (Malme-3M): 18.5 µM (inactive) | GI50 (HL-60): 13 µM (inactive) | GI50 (OVCAR-4): 19.9 µM (inactive) | GI50 (K562): 8.34 µM (inactive) | GI50 (MDA-MB-435): 16.9 µM (inactive) | GI50 (T47D): 2.85 µM (inactive) | GI50 (A549): 13.7 µM (inactive) | GI50 (NCI-H460): 19.5 µM (inactive) | GI50 (MCF7): 12.5 µM (inactive) | GI50 (RXF 393): 7.8 µM (inactive) | GI50 (SF-539): 19.4 µM (inactive) | GI50 (SW-620): 18 µM (inactive) | GI50 (OVCAR-8): 17.2 µM (inactive) | GI50 (MDA-MB-231): 23.5 µM (inactive) | GI50 (PC-3): 16.1 µM (inactive) | GI50 (CCRF-CEM): 10.8 µM (inactive) | GI50 (SN12C): 20.2 µM (inactive) | GI50 (HCT-15): 15.1 µM | GI50 (SNB-19): 14.2 µM (inactive) | GI50 (MDA-N): 15.3 µM (inactive) | GI50 (SF-295): 15.8 µM (inactive) | GI50 (UACC-257): 19.7 µM (inactive) | GI50 (U-251): 16.7 µM (inactive) | GI50 (OVCAR-5): 17.7 µM (inactive) | GI50 (UO-31): 14.9 µM (inactive) | GI50 (SNB-75): 22.2 µM (inactive) | GI50 (NCI-H226): 15.1 µM (inactive) | GI50 (SK-MEL-2): 20.4 µM (inactive) | GI50 (A498): 29.8 µM (inactive) | GI50 (M14): 23.6 µM (inactive) | GI50 (786-0): 18.1 µM (inactive) | GI50 (KM12): 10.3 µM (inactive) | GI50 (HOP-92): 13.5 µM (inactive)

CCCCN1C(=O)CS/C1=N/Nc1nc2c([nH]1)c(=O)n(C)c(=O)n2C
GI50 (EKVX): > 100 µM (inactive) | GI50 (BT-549): > 100 µM (inactive) | GI50 (MOLT-4): 21.8 µM (inactive) | GI50 (UACC-62): 86.5 µM (inactive) | GI50 (SF-268): 7.74 µM (inactive) | GI50 (HOP-62): 4.62 µM (inactive) | GI50 (NCI-H23): > 100 µM (inactive) | GI50 (COLO 205): > 100 µM (inactive) | GI50 (HT-29): 23.9 µM (inactive) | GI50 (TK-10): > 100 µM (inactive) | GI50 (NCI/ADR-RES): > 100 µM (inactive) | GI50 (SK-OV-3): 6.47 µM (inactive) | GI50 (SK-MEL-28): 20 µM (inactive) | GI50 (ACHN): > 100 µM (inactive) | GI50 (OVCAR-3): 64.1 µM (inactive) | GI50 (CAKI-1): > 100 µM (inactive) | GI50 (DU-145): 19.2 µM (inactive) | GI50 (NCI-H522): 61.7 µM (inactive) | GI50 (Hs-578T): 45.4 µM (inactive) | GI50 (RPMI-8226): 42.4 µM (inactive) | GI50 (IGROV-1): > 100 µM (inactive) | GI50 (SR): 11.9 µM (inactive) | GI50 (HCC 2998): > 100 µM (inactive) | GI50 (SK-MEL-5): 37.8 µM (inactive) | GI50 (HCT-116): 15.2 µM (inactive) | GI50 (Malme-3M): 38.8 µM (inactive) | GI50 (HL-60): > 100 µM (inactive) | GI50 (OVCAR-4): 19.5 µM (inactive) | GI50 (K562): 30.5 µM (inactive) | GI50 (MDA-MB-435): 14.7 µM (inactive) | GI50 (T47D): 34.2 µM (inactive) | GI50 (A549): > 100 µM (inactive) | GI50 (NCI-H460): 13.7 µM (inactive) | GI50 (MCF7): 13.7 µM (inactive) | GI50 (RXF 393): > 100 µM (inactive) | GI50 (SF-539): 37.8 µM (inactive) | GI50 (MDA-MB-231): 29 µM (inactive) | GI50 (PC-3): > 100 µM (inactive) | GI50 (CCRF-CEM): 22.2 µM (inactive) | GI50 (SN12C): 33.6 µM (inactive) | GI50 (HCT-15): > 100 µM | GI50 (SNB-19): 37.8 µM (inactive) | GI50 (MDA-N): 14.6 µM (inactive) | GI50 (SF-295): 7.35 µM (inactive) | GI50 (UACC-257): > 100 µM (inactive) | GI50 (U-251): 15 µM (inactive) | GI50 (OVCAR-5): 14.5 µM (inactive) | GI50 (UO-31): > 100 µM (inactive) | GI50 (NCI-H226): > 100 µM (inactive) | GI50 (SK-MEL-2): 30 µM (inactive) | GI50 (A498): > 100 µM (inactive) | GI50 (M14): 28.5 µM (inactive) | GI50 (786-0): 17.3 µM (inactive) | GI50 (KM12): 6.35 µM (inactive) | GI50 (HOP-92): 43.1 µM (inactive)

Nc1nc(N)c2c(Cl)c(CNc3ccc(C(=O)NC(CC(=O)O)C(=O)O)cc3)ccc2n1 (stereo not given)
GI50 (EKVX): < 0.01 µM (active) | GI50 (BT-549): < 0.01 µM (active) | GI50 (MOLT-4): < 0.01 µM (active) | GI50 (UACC-62): < 0.01 µM (active) | GI50 (SF-268): < 0.01 µM (active) | GI50 (HOP-62): < 0.027 µM (active) | GI50 (NCI-H23): < 0.01 µM (active) | GI50 (COLO 205): < 0.01 µM (active) | GI50 (HT-29): < 0.01 µM (active) | GI50 (TK-10): < 0.01 µM (active) | GI50 (NCI/ADR-RES): < 0.01 µM (active) | GI50 (SK-OV-3): < 0.01 µM (active) | GI50 (ACHN): < 0.01 µM (active) | GI50 (CAKI-1): < 0.01 µM (active) | GI50 (DU-145): < 0.01 µM (active) | GI50 (NCI-H522): < 0.01 µM (active) | GI50 (Hs-578T): 22.8 µM (inactive) | GI50 (RPMI-8226): < 0.01 µM (active) | GI50 (LOX IMVI): < 0.01 µM (active) | GI50 (IGROV-1): < 0.01 µM (active) | GI50 (SR): < 0.01 µM (active) | GI50 (HCC 2998): > 100 µM (inactive) | GI50 (SK-MEL-5): < 0.01 µM (active) | GI50 (HCT-116): 10.7 µM (inactive) | GI50 (Malme-3M): 17.7 µM (inactive) | GI50 (HL-60): < 0.01 µM (active) | GI50 (OVCAR-4): 3.69 µM (inactive) | GI50 (K562): < 0.01 µM (active) | GI50 (MDA-MB-435): < 0.01 µM (active) | GI50 (T47D): > 100 µM (inactive) | GI50 (A549): < 0.01 µM (active) | GI50 (NCI-H460): < 0.01 µM (active) | GI50 (MCF7): < 0.01 µM (active) | GI50 (SF-539): < 0.01 µM (active) | GI50 (SW-620): < 0.01 µM (active) | GI50 (OVCAR-8): < 0.01 µM (active) | GI50 (MDA-MB-231): > 100 µM (inactive) | GI50 (PC-3): 9.31 µM (inactive) | GI50 (CCRF-CEM): < 0.01 µM (active) | GI50 (SN12C): < 0.01 µM (active) | GI50 (HCT-15): < 0.01 µM | GI50 (SNB-19): < 0.01 µM (active) | GI50 (MDA-N): < 0.01 µM (active) | GI50 (SF-295): < 0.01 µM (active) | GI50 (U-251): < 0.01 µM (active) | GI50 (OVCAR-5): < 0.01 µM (active) | GI50 (UO-31): < 0.01 µM (active) | GI50 (SNB-75): 8.87 µM (inactive) | GI50 (SK-MEL-2): > 100 µM (inactive) | GI50 (A498): < 0.01 µM (active) | GI50 (M14): < 0.01 µM (active) | GI50 (786-0): < 0.01 µM (active) | GI50 (KM12): < 0.01 µM (active) | GI50 (HOP-92): 0.043 µM (active)
